Columns and labels:
Type in all cases: in vivo
Sagittaria pygmaea, L. = test: Preemergence weed control under flooded paddy conditions, SAGPY (Arrowhead (Pygmaea)); settings: flooded paddy, rated three to four weeks after treatment; on herbicidal effect rating, SAGPY: meaning of each grade not given here
[1] = system: Monochoria vaginalis, Presl.; test: Preemergence weed control under flooded paddy conditions, MOOVA (Monochoria); settings: flooded paddy, rated three to four weeks after treatment; on herbicidal effect rating, MOOVA: meaning of each grade not given here
Cyperus iria = test: Preemergence weed control under flooded paddy conditions, CYPIR (Rice Flatsedge); settings: flooded paddy, rated three to four weeks after treatment; on herbicidal effect rating, CYPIR: meaning of each grade not given here
[2] = system: Echinochloa oryzoides (Ard.) Fritsch.; test: Preemergence weed control under flooded paddy conditions, ECHORC (Watergrass (Calif.)); settings: flooded paddy, rated three to four weeks after treatment; on herbicidal effect rating, ECHORC: meaning of each grade not given here
[3] = system: Cyperus serotinus, Rottb.; test: Preemergence weed control under flooded paddy conditions, CYPSE (Flatsedge); settings: rated three to four weeks after treatment; on herbicidal effect rating, CYPSE: meaning of each grade not given here
[4] = 0.0313 kg/ha, preemergence weeds
[5] = 0.0625 kg/ha, preemergence weeds
[6] = 0.1250 kg/ha, preemergence weeds
[7] = 0.2500 kg/ha, preemergence weeds
[8] = Rate 0.0313 kg/ha, preemergence
[9] = Rate 0.0625 kg/ha, preemergence
[10] = Rate 0.1250 kg/ha, preemergence
[11] = Rate 0.2500 kg/ha, preemergence

Cc1ccc(OCC(=O)n2cnc3ccccc32)c(-c2nsc3ccc(-n4c(=O)cc(C(F)(F)F)n(C)c4=O)cc23)c1 [Example 62]
7.0: herbicidal effect rating, SAGPY (Sagittaria pygmaea, L.; 0.2500 kg/ha, preemergence)
4.0: herbicidal effect rating, SAGPY (Sagittaria pygmaea, L.; 0.1250 kg/ha, preemergence) | herbicidal effect rating, CYPIR (Cyperus iria; 0.0313 kg/ha, preemergence)
2.0: herbicidal effect rating, CYPSE ([3]; 0.1250 kg/ha, preemergence)
6.0: herbicidal effect rating, CYPIR (Cyperus iria; 0.0625 kg/ha, preemergence) | herbicidal effect rating, ECHORC ([2]; 0.0313 kg/ha, preemergence)
0.0: herbicidal effect rating, SAGPY (Sagittaria pygmaea, L.; 0.0313 kg/ha, preemergence) | herbicidal effect rating, CYPSE ([3]; 0.0313 kg/ha, preemergence)
1.0: herbicidal effect rating, SAGPY (Sagittaria pygmaea, L.; 0.0625 kg/ha, preemergence) | herbicidal effect rating, CYPSE ([3]; 0.0625 kg/ha, preemergence)
9.0: herbicidal effect rating, MOOVA ([1]; 0.0313 kg/ha, preemergence) | herbicidal effect rating, MOOVA ([1]; 0.0625 kg/ha, preemergence) | herbicidal effect rating, MOOVA ([1]; 0.1250 kg/ha, preemergence) | herbicidal effect rating, MOOVA ([1]; 0.2500 kg/ha, preemergence) | herbicidal effect rating, CYPIR (Cyperus iria; 0.1250 kg/ha, preemergence) | herbicidal effect rating, CYPIR (Cyperus iria; 0.2500 kg/ha, preemergence) | herbicidal effect rating, ECHORC ([2]; 0.0625 kg/ha, preemergence) | herbicidal effect rating, ECHORC ([2]; 0.1250 kg/ha, preemergence) | herbicidal effect rating, ECHORC ([2]; 0.2500 kg/ha, preemergence) | herbicidal effect rating, CYPSE ([3]; 0.2500 kg/ha, preemergence)

COC(=O)C=CCOc1ccc(C)cc1-c1nsc2ccc(-n3c(=O)cc(C(F)(F)F)n(C)c3=O)cc12 [Example 188, Methyl 4-{{2-{5-[3,6-dihydro-3-methyl-2,6-dioxo-4-(trifluoromethyl)-1(2H)-pyrimidinyl]-1,2-benzisothiazol-3-yl}-p-tolyl}oxy}-2-butenoate, (E)- and (Z)-]
8.0: herbicidal effect rating, ECHORC [2, 7]
9.0: herbicidal effect rating, MOOVA [1, 4] | herbicidal effect rating, MOOVA [1, 5] | herbicidal effect rating, MOOVA [1, 6] | herbicidal effect rating, MOOVA [1, 7]
2.0: herbicidal effect rating, ECHORC [2, 6]
0.0: herbicidal effect rating, SAGPY (Sagittaria pygmaea, L.; [4]) | herbicidal effect rating, SAGPY (Sagittaria pygmaea, L.; [5]) | herbicidal effect rating, SAGPY (Sagittaria pygmaea, L.; [6]) | herbicidal effect rating, SAGPY (Sagittaria pygmaea, L.; [7]) | herbicidal effect rating, CYPIR (Cyperus iria; [4]) | herbicidal effect rating, CYPIR (Cyperus iria; [5]) | herbicidal effect rating, CYPIR (Cyperus iria; [6]) | herbicidal effect rating, CYPIR (Cyperus iria; [7]) | herbicidal effect rating, ECHORC [2, 4] | herbicidal effect rating, ECHORC [2, 5] | herbicidal effect rating, CYPSE [3, 4]

CC(C)=NOC(=O)COc1ccc(C)cc1-c1nsc2ccc(-n3c(=O)cc(C(F)(F)F)n(C)c3=O)cc12 [Example 194]
0.0: herbicidal effect rating, SAGPY (Sagittaria pygmaea, L.; [4]) | herbicidal effect rating, SAGPY (Sagittaria pygmaea, L.; [5]) | herbicidal effect rating, SAGPY (Sagittaria pygmaea, L.; [6]) | herbicidal effect rating, SAGPY (Sagittaria pygmaea, L.; [7]) | herbicidal effect rating, CYPIR (Cyperus iria; [4]) | herbicidal effect rating, CYPIR (Cyperus iria; [5]) | herbicidal effect rating, CYPIR (Cyperus iria; [6]) | herbicidal effect rating, CYPIR (Cyperus iria; [7]) | herbicidal effect rating, ECHORC [2, 4] | herbicidal effect rating, CYPSE [3, 4] | herbicidal effect rating, CYPSE [3, 5] | herbicidal effect rating, CYPSE [3, 6] | herbicidal effect rating, CYPSE [3, 7]
6.0: herbicidal effect rating, ECHORC [2, 6]
2.0: herbicidal effect rating, ECHORC [2, 5]
9.0: herbicidal effect rating, MOOVA [1, 4] | herbicidal effect rating, MOOVA [1, 5] | herbicidal effect rating, MOOVA [1, 6] | herbicidal effect rating, MOOVA [1, 7] | herbicidal effect rating, ECHORC [2, 7]

CC(OCc1nsc2ccc(-n3c(=O)cc(C(F)(F)F)n(C)c3=O)cc12)C(F)(F)F (centres unmarked) [Example 208]
0.0: SAGPY herbicidal effect rating (Sagittaria pygmaea, L.; [8]) | SAGPY herbicidal effect rating (Sagittaria pygmaea, L.; [9]) | SAGPY herbicidal effect rating (Sagittaria pygmaea, L.; [10]) | SAGPY herbicidal effect rating (Sagittaria pygmaea, L.; [11]) | MOOVA herbicidal effect rating [1, 8] | ECHORC herbicidal effect rating [2, 8] | ECHORC herbicidal effect rating [2, 9] | ECHORC herbicidal effect rating [2, 10] | ECHORC herbicidal effect rating [2, 11] | CYPSE herbicidal effect rating [3, 8] | CYPSE herbicidal effect rating [3, 9] | CYPSE herbicidal effect rating [3, 10] | CYPSE herbicidal effect rating [3, 11]
4.0: MOOVA herbicidal effect rating [1, 11]
2.0: MOOVA herbicidal effect rating [1, 9] | MOOVA herbicidal effect rating [1, 10]
9.0: CYPIR herbicidal effect rating (Cyperus iria; [8]) | CYPIR herbicidal effect rating (Cyperus iria; [9]) | CYPIR herbicidal effect rating (Cyperus iria; [10]) | CYPIR herbicidal effect rating (Cyperus iria; [11])

From patent EP0908457B1, “3-(1,2-benzisothiazol- and isoxazol-5-Y1)-2,4(1H,3H)-pyrimidinedione or thione and 3-(1,2-benzisothiazol- and isoxazol-5-y1)-4(3H)-pyrimidinone or thione herbicidal agents” (BASF AKTIENGESELLSCHAFT, priority 1997, dated 1999)
